System: DU-145
Assay: CellTiter-Glo cancer cell growth inhibition, DU-145
Type: cell-based
Details: Homo sapiens, DU-145, 72 h
Description: The CellTiter-Glo® Luminescent Cell Viability Assay is a sensitive homogeneous method to determine the number of viable cells in culture, Detection is based on using the luciferase reaction to measure the amount of ATP from viable cells. The amount of ATP in cells correlates with cell viability. Within minutes after a loss of membrane integrity, cells lose the ability to synthesize ATP, and endogenous ATPases destroy any remaining ATP; thus the levels of ATP fall precipitously. The CellTiter-Glo® Reagent does three things upon addition to cells. It lyses cell membranes to release ATP; it inhibits endogenous ATPases, and it provides luciferin, luciferase and other reagents necessary to measure ATP using a bioluminescent reaction. The unique properties of a proprietary stable luciferase. There is a linear relationship (r2=0.99) between the luminescent signal and the number of cells from 0 to 50.000 cells per well.
All assays were performed by Reaction Biology Corporation (Malvern, Pa.) or ChemDiv, Inc. (San Diego, Calif.). […]
Conditions: 37° C., air 95%; HEPA-filtered carbon dioxide (CO2) 5%, humidified atmosphere. • Cells were grown in 175 cm^2 flasks to 80-90% of confluency. • Culture media was aspirated and cell layer was briefly rinsed with Versen solution to remove all traces of serum. • 2 mL of accutase was added to cells. • Flasks were retuned to incubator for 5 min to allow cell detachment. • Add 6.0 mL of complete growth medium. • Single cell suspension was created by gently pipetting. • Cells were counted using a Hematocytometer and a suspension with the desired cell concentration was prepared. […]
Stock solutions ([…]) were diluted with cell culture media to produce 500× serial dilutions and […] of final compound dilutions were added to cells in assay plates to screen a series of 10 doses starting at 100 mM. […] Luminescence intensity was measured for each well using the Tecan M 1000 microplate reader after 5 min of incubation with CellTiter-Glo Reagent. The number of viable cells in culture was determined based on quantitation of the ATP present in each culture well. […]

`CN[C@@H]1C[C@H]2O[C@@](C)([C@@H]1OC)n1c3ccccc3c3c4c(c5c6ccccc6n2c5c31)C(=O)NC4` [Staurosporine, reference compound] gave an EC50 of 4.8 nM.

— patent US20220274997A1, “PIM KINASE INHIBITOR COMPOSITIONS AND USES THEREOF” (Snap Bio, Inc., priority 2019, published 2022)
